A short description of series [1]: Proteolytic resistance to FasSSGF containing porcine pancreatic pepsin. Format: in vitro ADME. The conditions noted are these: pig, simulated gastric fluid, FasSSGF with pepsin, 37° C., read-out: % intact peptide over time (min). Summed up: (§1)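 Peptide (250 μM stock in FasSSGF) mixed 1:1 with porcine pepsin stock (0.5 mg/mL in FasSSGF) and held at 37° C; samples at 0, 5, 10, 15 and 30 min quenched in ammonium bicarbonate, pH 8. Intact peptide remaining estimated by RP-HPLC peak area, UV 210 nm.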

The target in series [2] is T1, porcine pancreatic pepsin (Sus scrofa, UniProt P00791).
T1 construct: purchased Sigma P7012
The series is described as above. Format: in vitro ADME. The conditions noted are these: FasSSGF with pepsin, 37° C., 0 min. The essentials: as §1

The next series relates to Pancreatin. Briefly: Proteolytic resistance to FasSSIF/Pancreatin. Format: in vitro ADME. Particulars: FasSSIF/Pancreatin, 37° C., 0 min. The essentials:
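Peptide (1.0 mg) in pre-warmed FasSSIF, proteolysis started with fresh FasSSIF/USP Pancreatin and held at 37 °C. Aliquots at 0, 5, 10, 15, 30 min quenched in 10% TFA; remaining intact peptide estimated by RP-HPLC peak area, UV 210 nm.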

Series [3] in a line: Mouse acute food intake study. In kind it is in vivo. The conditions noted are these: male C57Bl/6 mice, s.c., cumulative food intake at 24 hr vs vehicle. Summed up:
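Single-housed male C57Bl/6 mice (8-9 weeks on arrival), chow-fed, acclimated and sham-dosed ≥2 times, were fasted 6-8 h, then given vehicle or peptide subcutaneously at 5 mL/kg 1-2 h before lights out. Food intake was recorded automatically over 48 h and analysed as cumulative intake.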

In series [4] the test system is GLP-1R knockout (KO) mice. Briefly: Glucose change in GLP-1R knockout mice. The conditions noted are these: GLP-1R KO mice, s.c., 60 min vs 0 min, no somatostatin pretreatment. In kind it is in vivo, mouse. The essentials: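 GLP-1R knockout mice (n=4-8/group, sorted by body weight) were fasted 2 h, and in some studies pretreated with octreotide 10 mg/kg 30 min before peptide injection. Mice were reused up to 3 times with at least 1-week wash-out.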

The subject of the next series is wildtype (WT) mice. Kind of series: Glucose change in wildtype mice. The conditions noted are these: s.c., 60 min vs 0 min, no somatostatin pretreatment. Format: in vivo, mouse. Summed up: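 Wildtype mice aged 8-14 weeks, fasted 2 h, sometimes pre-treated with octreotide 10 mg/kg 30 min before peptide injection. Blood glucose by glucometer at -30, 0, 30, 60, 120, 180, 240 and 360 min; n=4-8/group, mice reused up to 3 times with ≥1 week wash-out.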

The nature of series [5]: in vivo. Particulars: male, C57BL/6, mouse, 10 nmol/kg.
Series [6] in a line: in vivo. Particulars: male, Beagle, dog, iv, 10 nmol/kg. An excerpt: (§2) Selected test peptides (n=8) were profiled for pharmacokinetic (PK) properties in the mouse after single intravenous (i.v.) or subcutaneous (s.c.) dose. A subset (n=4) meeting the acceptance criteria was subsequently profiled in the dog (single i.v. dose) and non-human primate (single i.v. and s.c. dose). […] Low-binding plasticware containers were used during preparation and sample handling to avoid non-specific binding.
Blood of each sample was transferred into plastic micro centrifuge tubes containing EDTA-K2, inverted several times for proper mixing of contents and then placed on wet ice.
(§3) Samples analysis: Samples were analyzed by LC-MS/MS. Calibration standards were injected at the beginning and end of each batch and the determined concentration for each prepared standard was used to construct a calibration curve. Plasma and dose aliquot sample concentrations were determined from the plasma calibration curve.
(§4) Data analysis: Plasma concentration data was analyzed by non-compartmental analysis (NCA) using Phoenix Winnonlin v. 8.3.3.33. Linear trapezoidal rule was used for increasing values and log trapezoidal rule was used for decreasing values, applying uniform weighting for lambda_z calculations. Subcutaneous bioavailability was calculated as the ratio AUC(s.c.)0-inf/AUC(i.v.)0-inf. Reported values (Table 18) represent the mean of the individual estimates.

Series [7] is described as follows: in vivo. The conditions noted are these: male, cynomolgus monkey, 10 nmol/kg.
From the text: as §2
Non-human primate: PK was studied in non-naïve male cynomolgus monkeys. After dosing, PK samples were collected from the femoral vein. Blood of each sample was transferred into plastic micro centrifuge tubes containing EDTA-K2, inverted several times for proper mixing of contents and then placed on wet ice. The blood samples were centrifuged under refrigerated (2° C. to 8° C.) conditions within 30 minutes following sample collection to obtain plasma and stored at −60° C. to −90° C.° C. prior to analysis.
as §3, §4

Series [8] has as its target human GLP-1 receptor (hGLP-1R) (Homo sapiens, UniProt P43220). Kind of series: cAMP production (HTRF) in CHO cells expressing hGLP-1R. More on the design: expressed in transfected cells. In kind it is cell-based. Summed up:
(§5)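 Cells were resuspended in assay buffer at batch-optimized density, typically 1×10^5 cells/mL for hGLP-1R and 2×10^5 cells/mL for hGCGR. After 30 min incubation at room temperature with compound, cAMP was measured by two-step HTRF. EC50 values came from 4-parameter logistic fits of % Delta F.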
For orientation: Changes in cAMP serve as a functional read-out for many G protein-coupled receptors.

The target in series [9] is human glucagon receptor (hGCGR) (Homo sapiens, UniProt P47871). Briefly: cAMP production (HTRF) in CHO cells expressing hGCGR. In kind it is cell-based. Particulars: Table 6, peptides modified at position 17; cAMP in CHO hGCGR cells; geometric mean; read-out: hGluc-R EC50. More on the design: expressed in transfected cells. The essentials:
as §5

Values joined by “and” are separate entries in the source; they are usually repeats but may differ in a detail not shown here. Equal entries are not always repeated.

Chain of human GLP-1 receptor (hGLP-1R) (P43220 24-463): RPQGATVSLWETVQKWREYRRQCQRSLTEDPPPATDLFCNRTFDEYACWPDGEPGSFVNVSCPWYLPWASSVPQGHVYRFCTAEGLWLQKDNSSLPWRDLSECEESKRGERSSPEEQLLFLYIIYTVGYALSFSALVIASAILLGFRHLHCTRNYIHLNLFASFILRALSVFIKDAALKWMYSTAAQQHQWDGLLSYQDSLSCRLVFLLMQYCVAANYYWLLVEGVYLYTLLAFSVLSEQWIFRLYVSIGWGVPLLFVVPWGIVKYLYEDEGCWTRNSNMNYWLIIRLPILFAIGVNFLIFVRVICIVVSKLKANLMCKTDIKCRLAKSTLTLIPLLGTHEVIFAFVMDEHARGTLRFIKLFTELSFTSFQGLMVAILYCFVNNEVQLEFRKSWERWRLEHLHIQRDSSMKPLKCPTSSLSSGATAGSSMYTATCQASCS
T1 sequence (P00791 60-385): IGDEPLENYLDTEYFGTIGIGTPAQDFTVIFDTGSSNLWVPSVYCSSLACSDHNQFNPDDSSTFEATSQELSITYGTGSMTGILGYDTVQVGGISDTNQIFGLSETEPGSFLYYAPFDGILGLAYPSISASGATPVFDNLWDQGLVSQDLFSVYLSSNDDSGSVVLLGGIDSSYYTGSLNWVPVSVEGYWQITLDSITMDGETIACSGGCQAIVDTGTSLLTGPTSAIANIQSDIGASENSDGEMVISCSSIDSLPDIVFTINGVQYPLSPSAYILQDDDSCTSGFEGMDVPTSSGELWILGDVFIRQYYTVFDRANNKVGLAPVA
Chain of human glucagon receptor (hGCGR) (P47871 26-477): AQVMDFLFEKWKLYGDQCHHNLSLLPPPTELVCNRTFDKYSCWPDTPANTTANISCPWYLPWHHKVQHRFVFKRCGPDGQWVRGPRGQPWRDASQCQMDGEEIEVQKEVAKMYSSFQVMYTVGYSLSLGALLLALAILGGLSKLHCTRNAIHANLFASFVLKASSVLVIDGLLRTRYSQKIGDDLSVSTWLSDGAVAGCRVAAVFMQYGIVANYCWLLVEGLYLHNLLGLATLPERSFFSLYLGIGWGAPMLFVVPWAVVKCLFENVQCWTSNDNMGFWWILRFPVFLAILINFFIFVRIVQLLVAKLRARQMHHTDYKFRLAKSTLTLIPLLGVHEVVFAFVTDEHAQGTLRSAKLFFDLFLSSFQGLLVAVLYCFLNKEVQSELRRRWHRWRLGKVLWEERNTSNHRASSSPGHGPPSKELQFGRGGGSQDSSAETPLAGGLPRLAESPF

As to `CC[C@H](C)[C@H](NC(=O)[C@H](Cc1ccccc1)NC(=O)[C@H](CCC(=O)O)NC(=O)[C@H](CCCCNC(=O)COCCOCCNC(=O)COCCOCCNC(=O)CC[C@H](NC(=O)CCCCCCCCCCCCCCCCC(=O)O)C(=O)O)NC(=O)[C@H](C)NC(=O)[C@H](C)NC(=O)[C@H](CCC(N)=O)NC(=O)CNC(=O)[C@H](CCC(=O)O)NC(=O)[C@H](CC(C)C)NC(=O)[C@H](Cc1ccc(O)cc1)NC(=O)[C@H](CO)NC(=O)[C@H](CO)NC(=O)[C@@H](NC(=O)[C@H](CC(=O)O)NC(=O)[C@H](CO)NC(=O)[C@@H](NC(=O)[C@H](Cc1ccccc1)NC(=O)[C@@H](NC(=O)CNC(=O)[C@H](CCC(=O)O)NC(=O)C(C)(C)NC(=O)[C@@H](N)Cc1cnc[nH]1)[C@@H](C)O)[C@@H](C)O)C(C)C)C(=O)N[C@@H](C)C(=O)N[C@@H](Cc1c[nH]c2ccccc12)C(=O)N[C@@H](CC(C)C)C(=O)N[C@H](C(=O)N[C@@H](CCCNC(=N)N)C(=O)NCC(=O)N[C@@H](CCCNC(=N)N)C(=O)NCC(=O)O)C(C)C` [semaglutide, reference compound], in [1] (5 min), the remaining at 5 min, 125 µM is 15%. Also, the remaining at 10 min, 125 µM in series [1] (10 min) is 13%. Moreover, the remaining at 0.25 h, 125 µM in [1] (15 min) is 12%. For the same compound, the remaining at 0.5 h, 125 µM in series [1] (30 min) is 14%. Moreover, the “% intact peptide over time (min)” value (in series [2]; in the series with Pancreatin) was 100% in each case.
Regarding `CC(C)C[C@H](NC(=O)[C@H](Cc1c[nH]c2ccccc12)NC(=O)[C@H](CCC(N)=O)NC(=O)[C@@H](NC(=O)[C@H](Cc1ccccc1)NC(=O)[C@H](CC(=O)O)NC(=O)[C@H](CCCNC(=N)N)NC(=O)[C@H](C)NC(=O)[C@H](CCCNC(=N)N)NC(=O)[C@H](CCCCNC(=O)COCCOCCNC(=O)COCCOCCNC(=O)CC[C@H](NC(=O)CCCCCCCCCCCCCCCCC(=O)O)C(=O)O)NC(=O)[C@@H](NC(=O)[C@H](CC(=O)O)NC(=O)[C@H](CC(C)C)NC(=O)[C@](C)(Cc1ccccc1)NC(=O)[C@H](CCCCN)NC(=O)[C@H](CO)NC(=O)[C@@H](NC(=O)[C@H](CC(=O)O)NC(=O)[C@H](CO)NC(=O)[C@@H](NC(=O)[C@H](Cc1ccccc1)NC(=O)[C@@H](NC(=O)CNC(=O)[C@H](CCC(N)=O)NC(=O)C(C)(C)NC(=O)[C@@H](N)Cc1c[nH]cn1)[C@@H](C)O)[C@@H](C)O)C(C)C)[C@@H](C)O)C(C)C)C(=O)N[C@@H](CC(C)C)C(=O)N[C@@H](CCC(=O)O)C(=O)NC(C)(C)C(=O)NCC(=O)O` [Peptide 188, H-Aib-Q-G-T-F-T-S-D-V—S-K-αMePhe-L-D-T-K-R-A-R-D-F-V-Q-W-L-L-E-Aib-G-acid], the “24 hr % Vehicle Food Intake” value is 99.9% in series [3] (dose 1 nmol/kg); 80.6% in series [3] (dose 3 nmol/kg); 60.7% and 49.8% in series [3] (dose 10 nmol/kg). The “GLP-1R KO % glucose change - 60 min” value in series [4] (10 nmol/kg) is reported as 64%; in [4] (30 nmol/kg), 44.6%. Further, the “WT % glucose change 60 min” value in the series on wildtype (WT) mice (10 nmol/kg) is recorded as −23.2%; with wildtype (WT) mice (30 nmol/kg), −31.3%. The bioavailability (usually dose-corrected exposure relative to a reference, in per cent) in the series “in vivo [5]” worked out at 98%; in the series “in vivo [7]” it was 79%. For the same compound, the half-life – broadly, the time needed for the level to fall by half in the phase considered – in “in vivo [5]” (iv) was 7.9 h; in “in vivo [6]”, 71 h; in “in vivo [7]” (iv), 67 h. The EC50 – broadly, the concentration needed to bring the measured effect to its halfway point – turned out to be 0.0208 nM in series [8] (Table 6, peptides modified at position 17, cAMP in CHO hGLP-1R cells, geometric mean, read-out: hGLP-1R EC50) and 0.0347 nM in series [9]. Further, the “% Relative Potency Ratio” value in series [8] (Table 6, % GLP-1R activity relative to GLP-1 / % GlucR activity relative to glucagon) amounted to 3.3.

The record behind these values is US20250353891A1 (MEDIMMUNE LIMITED, priority 2022, published 2025).
